Article PMC7409368 (Free radical biology & medicine, 2018)

Molecular target: T1, Drosophila MSRA (Drosophila melanogaster, UniProt P08761, C232S/C246S)
T1 sequence (P08761 2-246 C232S/C246S): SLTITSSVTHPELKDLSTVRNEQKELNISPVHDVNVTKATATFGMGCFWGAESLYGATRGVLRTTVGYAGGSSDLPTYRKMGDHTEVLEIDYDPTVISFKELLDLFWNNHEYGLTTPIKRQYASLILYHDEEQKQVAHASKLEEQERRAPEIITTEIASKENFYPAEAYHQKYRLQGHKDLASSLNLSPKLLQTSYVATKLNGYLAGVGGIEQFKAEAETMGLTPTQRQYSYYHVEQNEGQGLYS
Experiment: intact protein mass spectrometry after incubation with MetO
Type: biochemical
Conditions: no dithiothreitol; oxidation of active site cysteine

C[S+]([O-])CC[C@H](N)C(=O)O (stereo partly drawn) [MetO, L-Methionine Sulfoxide]
intact protein mass spectrometry after incubation with MetO: when the C232S/C246S mutant was incubated with MetO, we observed that the mass
